From paper PMC3366211, “Leishmanicidal Activity of Nine Novel Flavonoids from Delphinium staphisagria” (The Scientific World Journal, 2012)

Legend:
[1] = test system: L. braziliensis promastigote forms; assay: Promastigote forms assay; assay type: cell-based, Leishmania braziliensis; conditions: for SI Promastigote forms: IC50 macrophages/IC50 parasite form; for IC50: Leishmania braziliensis, 72 h; for number of times that compound SI exceeds the reference drug SI, Promastigote forms: in brackets, reference Glucantime
Method: (§1) The compounds obtained were dissolved in the culture medium, at dosages of 100, 50, 25, 10, and 1 μM. The effects of each compound against promastigote forms were tested at 72 hours using a Neubauer haemocytometric chamber. The antileishmanial effect is expressed as the IC50, that is, the concentration required to give 50% inhibition, calculated by linear regression analysis from the Kc values of the concentrations employed.

[2] = test system: L. infantum promastigote forms; assay: Promastigote forms assay; assay type: cell-based, Leishmania infantum; conditions: for SI Promastigote forms: IC50 macrophages/IC50 parasite form; for IC50: Leishmania infantum, 72 h; for times SI exceeds the reference drug SI (all forms): extracellular and intracellular forms; for times SI exceeds the reference drug SI (all forms) / number of times that compound SI exceeds the reference drug SI, Promastigote forms: reference Glucantime; for number of times that compound SI exceeds the reference drug SI, Promastigote forms: in brackets
Method: as §1

J774.2 macrophages = assay: Cytotoxicity test for macrophages (flow cytometry); assay type: cell-based, BALB/c rat; conditions: Mus musculus, J774.2, 72 h, J774.2 macrophages after 72 h of culture; read-out: Macrophage toxicity IC50
Method: J774.2 macrophages (ECACC number 91051511) were originally obtained from a tumour in a female BALB/c […] in 1968. The cytotoxicity test for macrophages was performed according to the methodology of González et al.. After 72 hours of treatment, cell viability was determined by flow cytometry. Thus, 100 μL/well of propidium iodide solution ([…]) was added and incubated for 10 min at 28°C in darkness. Afterwards, 100 μL/well of fluorescein diacetate (100 ng/mL) was added and incubated under the same conditions. Finally, the cells were recovered by centrifugation at 400 g for 10 min and the precipitate washed with phosphate buffered saline (PBS). Flow cytometric analysis was performed with a FACSVantage flow cytometer (Becton Dickinson). The percentage viability was calculated in comparison with the control culture. The IC50 was calculated using linear regression analysis from the Kc values of the concentrations employed.

[3] = test system: L. infantum intracellular amastigote forms; assay: Intracellular amastigote forms assay in J774.2 macrophages; assay type: cell-based, Leishmania infantum; conditions: for SI Intracellular amastigote forms / number of times that compound SI exceeds the reference drug SI, Intracellular amastigote forms: L. infantum; for SI Intracellular amastigote forms: IC50 macrophages/IC50 parasite form; for number of times that compound SI exceeds the reference drug SI, Intracellular amastigote forms: in brackets, reference Glucantime; for IC50: Leishmania infantum, L. infantum in J774.2 macrophages, 72 h
Method: (§2) Cells were seeded at a density of 1 × 10^4 cells/well in 24-well microplates (Nunc) with rounded coverslips on the bottom and cultured for 2 days. Afterwards the cells were infected in vitro with promastigote forms of L. infantum and L. braziliensis, at a ratio of 10 : 1 during 24 hours. The non-phagocytosed parasites were removed by washing, and then the drugs (at 1, 10, 25, 50, 100 μM) were added. Macrophages with the drugs were incubated for 72 hours at 37°C in 5% CO2.
(§3) Drug activity was determined on the basis of number of amastigotes in treated and untreated cultures in methanol-fixed and Giemsa-stained preparations. The number of amastigotes was determined by analyzing 200 host cells distributed in randomly chosen microscopic fields. The antileishmanial effect is expressed as the IC50 values are the means of three separate determinations.

[4] = test system: L. braziliensis axenic amastigote forms; assay: Axenic amastigote forms assay; assay type: cell-based, Leishmania braziliensis; conditions: for SI Axenic amastigote forms: IC50 macrophages/IC50 parasite form; for IC50: Leishmania braziliensis, 48 hours per method (72 h); for number of times that compound SI exceeds the reference drug SI, Axenic amastigote forms: in brackets, reference Glucantime
Method: (§4) Axenic amastigotes forms of L. infantum and L. braziliensis were cultured following the methodology described previously by Moreno et al.. Thus, promastigote transformation to amastigotes was obtained after three days of culture in M199 medium (Invitrogen, Leiden, The Netherlands) supplemented with 10% heat-inactivated FCS, 1 g/L β-alanine, 100 mg/L L-asparagine, 200 mg/L sacarose, 50 mg/L sodium pyruvate, 320 mg/L malic acid, 40 mg/L fumaric acid, 70 mg/L succinic acid, 200 mg/L α-ketoglutaric acid, 300 mg/L citric acid, 1.1 g/L sodium bicarbonate, 5 g/L MES, 0.4 mg/L hemin, and 10 mg/L gentamicin pH 5.4 at 37°C. The effect of each compound against axenic amastigotes forms was tested at 48 hours using a Neubauer haemocytometric chamber. The antileishmanial effect is expressed as the IC50.

[5] = test system: epimastigote forms of Trypanosoma cruzi; set-up: method as in PMID 21466157; conditions: cited from earlier work
[6] = test system: L. braziliensis intracellular amastigote forms; assay: Intracellular amastigote forms assay in J774.2 macrophages; assay type: cell-based, Leishmania braziliensis; conditions: for SI Intracellular amastigote forms / number of times that compound SI exceeds the reference drug SI, Intracellular amastigote forms: L. braziliensis; for SI Intracellular amastigote forms: IC50 macrophages/IC50 parasite form; for number of times that compound SI exceeds the reference drug SI, Intracellular amastigote forms: in brackets, reference Glucantime; for IC50: Leishmania braziliensis, L. braziliensis in J774.2 macrophages, 72 h
Method: as §2, §3

[7] = test system: L. infantum axenic amastigote forms; assay: Axenic amastigote forms assay; assay type: cell-based, Leishmania infantum; conditions: for SI Axenic amastigote forms: IC50 macrophages/IC50 parasite form; for IC50: Leishmania infantum, 48 hours per method (72 h); for number of times that compound SI exceeds the reference drug SI, Axenic amastigote forms: in brackets, reference Glucantime
Method: as §4

CC(=O)O[C@H]1[C@H](Oc2c(-c3ccc(O)cc3)oc3cc(O)cc(O)c3c2=O)O[C@H](CO)[C@@H](O)[C@@H]1O [Compound 2]
SI Promastigote forms [1]: 10.6
IC50 [1]: 25.1 ± 2.5 µM
number of times that compound SI exceeds the reference drug SI, Promastigote forms [1]: 18
SI Promastigote forms [2]: 7.8
IC50 [2]: 34.1 ± 1.6 µM
times SI exceeds the reference drug SI (all forms) [2]: < 50 times
number of times that compound SI exceeds the reference drug SI, Promastigote forms [2]: 10
IC50 (J774.2 macrophages): 267 ± 11 µM
SI Intracellular amastigote forms [3]: 6.3
number of times that compound SI exceeds the reference drug SI, Intracellular amastigote forms [3]: 13
IC50 [3]: 42.3 ± 3.9 µM
SI Axenic amastigote forms [4]: 9.6
IC50 [4]: 27.9 ± 2.7 µM
number of times that compound SI exceeds the reference drug SI, Axenic amastigote forms [4]: 19
IC50 compared with benznidazole [5]: significantly lower IC50 values compared with benznidazole
SI Intracellular amastigote forms [6]: 8.8
number of times that compound SI exceeds the reference drug SI, Intracellular amastigote forms [6]: 18
IC50 [6]: 30.2 ± 3.8 µM
SI Axenic amastigote forms [7]: 8.2
IC50 [7]: 32.7 ± 5 µM
number of times that compound SI exceeds the reference drug SI, Axenic amastigote forms [7]: 14

CC(=O)OC[C@H]1O[C@@H](Oc2c(-c3ccc(OC(C)=O)cc3)oc3cc(OC(C)=O)cc(OC(C)=O)c3c2=O)[C@H](OC(C)=O)[C@@H](OC(C)=O)[C@@H]1OC(C)=O [Compound 3]
SI Promastigote forms [1]: 12.3
IC50 [1]: 28.4 ± 3 µM
number of times that compound SI exceeds the reference drug SI, Promastigote forms [1]: 21
SI Promastigote forms [2]: 8.7
IC50 [2]: 40.4 ± 3.4 µM
times SI exceeds the reference drug SI (all forms) [2]: < 50 times
number of times that compound SI exceeds the reference drug SI, Promastigote forms [2]: 11
IC50 (J774.2 macrophages): 351 ± 26.8 µM
SI Intracellular amastigote forms [3]: 9.2
number of times that compound SI exceeds the reference drug SI, Intracellular amastigote forms [3]: 18
IC50 [3]: 38.1 ± 1.6 µM
SI Axenic amastigote forms [4]: 10.7
IC50 [4]: 32.9 ± 3 µM
number of times that compound SI exceeds the reference drug SI, Axenic amastigote forms [4]: 21
IC50 compared with benznidazole [5]: significantly lower IC50 values compared with benznidazole
SI Intracellular amastigote forms [6]: 8.4
number of times that compound SI exceeds the reference drug SI, Intracellular amastigote forms [6]: 17
IC50 [6]: 41.9 ± 4 µM
SI Axenic amastigote forms [7]: 12.0
IC50 [7]: 29.2 ± 3.1 µM
number of times that compound SI exceeds the reference drug SI, Axenic amastigote forms [7]: 20

O=c1c(O[C@@H]2O[C@H](CO)[C@@H](O)[C@H](O)[C@H]2O)c(-c2ccc(O)cc2)oc2cc(O)cc(O)c12 [Compound 1, astragalin]
SI Promastigote forms [1]: 8.4
IC50 [1]: 28.1 ± 1 µM
number of times that compound SI exceeds the reference drug SI, Promastigote forms [1]: 14
SI Promastigote forms [2]: 6.7
IC50 [2]: 35.1 ± 3.3 µM
times SI exceeds the reference drug SI (all forms) [2]: < 50 times
number of times that compound SI exceeds the reference drug SI, Promastigote forms [2]: 8
IC50 (J774.2 macrophages): 236 ± 17.9 µM
SI Intracellular amastigote forms [3]: 5.1
number of times that compound SI exceeds the reference drug SI, Intracellular amastigote forms [3]: 10
IC50 [3]: 45.9 ± 2.7 µM
SI Axenic amastigote forms [4]: 10.4
IC50 [4]: 22.6 ± 1.7 µM
number of times that compound SI exceeds the reference drug SI, Axenic amastigote forms [4]: 21
IC50 compared with benznidazole [5]: significantly lower IC50 values compared with benznidazole
SI Intracellular amastigote forms [6]: 7.3
number of times that compound SI exceeds the reference drug SI, Intracellular amastigote forms [6]: 15
IC50 [6]: 32.2 ± 1.6 µM
SI Axenic amastigote forms [7]: 8.1
IC50 [7]: 29.2 ± 2.8 µM
number of times that compound SI exceeds the reference drug SI, Axenic amastigote forms [7]: 14
